≈ marks a conversion by molar mass, not a printed value. Read-outs that look alike come from different tables or passages of the source.
Legend:
Format in all cases: physicochemical
[1] = Co-milling co-crystal screening, XRPD; conditions: co-milling with freebase
Experimental: About 30 mg of Compound (I) freebase and 1.05 eq. of co-former were direct weighed into the milling capsule and manually mixed before the addition of 1 volume of solvent (MtBE, MeOAc, or EtOH). Each system was milled once for 30 seconds before solids were collected. Samples of the wet material were taken for XRPD of the ‘wet’ material before drying under active vacuum at 50° C. for 2 hours. Unique patterns were further exposed to 97% R.H. for 24 hours.

[2] = Co-melting co-crystal screening, XRPD; conditions: co-melting with pralsetinib freebase, 1.05 eq. co-former
Experimental: The resulting powder was packed into a 100 μL DSC pan and heated at a rate of 10° C./min to 10° C. above the melting temperature of the lowest melting component. The experiment was isothermally held for 5 min before cooling to room temperature at a rate of 10° C./min. Samples were then taken for XRPD.

[3] = Solubility in water and simulated fluids (fasted/fed state simulated intestinal fluid, fasted state simulated gastric fluid); conditions: for solubility: thermodynamic from solid
[4] = Dynamic vapor sorption (DVS); conditions: for DVS Mass Change: glutarate and succinate: between 2% and 90% relative humidity
Experimental: Dynamic Vapor Sorption (DVS) was done using a DVS Intrinsic 1. The sample is loaded into a sample pan and suspended from a microbalance. A typical sample mass for DVS measurement is 25 mg. Nitrogen gas bubbled through distilled water provides the desired relative humidity. A typical measurement comprises the steps: • 1—Equilibrate at 50% RH • 2—50% to 2%. (50%, 40%, 30%, 20%, 10% and 2%) • a. Hold minimum of 5 mins and maximum of 60 minutes at each humidity. The pass criteria is less than 0.002% change • 3—2% to 95% (2%, 10%, 20%, 30%, 40%, 50%, 60%, 70%, 80%, 90%, 95%) • a. Hold minimum of 5 mins and maximum of 60 minutes at each humidity. The pass criteria is less than 0.002% change • 4—95% to 2% (95%, 80%, 70%, 60%, 50%, 40%, 30%, 20%, 10%, 2%) • a. Hold minimum of 5 mins and maximum of 60 minutes at each humidity. The pass criteria is less than 0.002% change • 5—2% to 50% (2%, 10%, 20%, 30%, 40%, 50%) • a. Hold minimum of 5 mins and maximum of 60 minutes at each humidity. The pass criteria is less than 0.002% change High Pressure Liquid Chromatography (HPLC)
Dynamic Vapor Sorption (DVS) was performed using a DVS Intrinsic 1. The samples (12-31 mg) was loaded into a sample pan, suspended from a microbalance and exposed to a humidified stream of nitrogen gas. The sample was held for a minimum of 5 min at each level and only progressed to the next humidity level if there was <0.002% change in weight between measurements (interval: 60 seconds) or 240 min had elapsed. The following program was used: • 1—Equilibration at 50% RH • 2—50% to 2%. (50%, 40%, 30%, 20%, 10% and 2%) • 3—2% to 95% (2%, 10%, 20%, 30%, 40%, 50%, 60%, 70%, 80%, 90%, 95%) • 4—95% to 2% (95%, 80%, 70%, 60%, 50%, 40%, 30%, 20%, 10%, 2%) • 5—2% to 50% (2%, 10%, 20%, 30%, 40%, 50%) High Performance Liquid Chromatography (HPLC)

[5] = Humidity exposure, 75% relative humidity at 40° C. for one week, XRPD; conditions: for stability on exposure to 75% relative humidity at 40° C.: one week / 7 days, XRPD
[6] = One week (7 days) slurry stability by XRPD and HPLC; conditions: for stability slurrying 7 days in EtOAc / stability slurrying 7 days in EtOH / stability slurrying 7 days in EtOH:water (95:5 vol): XRPD and HPLC
[7] = Salt screening: XRPD of wet cake, after drying under vacuum at 50° C., after exposure to 97% relative humidity; conditions: XRPD; for stability of salt solid form to humidification: 97% (>95%) relative humidity; for stability of salt solid form to drying: vacuum at 50° C.
Experimental: Stock solutions of counter-ion were prepared in EtOH, MeOH, or EtOAc, depending on solubility. […] The solvent was allowed to evaporate at room temperature over the weekend and then placed at 50° C. under vacuum for 3 hours to remove any remaining solvent. Approximately 25 volumes solvent (0.6 mL) was added to each vial for screening. The three solvents selected were EtOH, EtOAc, and IPA:water (9:1 vol). […] XRPD analysis was done in three stages. XRPD of the wet cake was done for all samples. Unique solids were then left on XRPD plates and dried under vacuum at 50° C. XRPD of unique dry solids was then done. […] The humid environment was generated by placing a beaker of saturated potassium sulfate in water in a sealed container. All XRPD patterns were compared to counter ion XRPD patterns and known free base patterns. Where solids were not of sufficient quantity to isolate, the solvent was evaporated at room temperature, the material dried at 50° C. under active vacuum for 3 hours, and then reslurried at room temperature in either MtBE or IPAc overnight after heating to 45° C. for 30 minutes.

[8] = Drying of free base solid forms (XRPD); conditions: for behaviour upon drying: XRPD

Compound: Nc1ccc(C(=O)O)cc1 [4-Aminobenzoic Acid]
- Wet (XRPD) ([1]; solvent EtOH): FB-C
- Wet (XRPD) ([1]; solvent MtBE, MeOAc): FB-C + 4-Aminobenzoic

Compound: O=C(O)c1ccc(O)cc1 [4-Hydroxybenzoic Acid]
- Wet (XRPD) ([1]; solvent MtBE, MeOAc, EtOH): FB-C
- Dry (XRPD) [2]: Am.

Compound: O=C(O)c1ccccc1 [Benzoic Acid]
- Wet (XRPD) ([1]; solvent MtBE, MeOAc, EtOH): FB-C
- Dry (XRPD) [2]: Am.

Compound: O=C(O)c1cc(O)ccc1O [Gentisic Acid]
- Wet (XRPD) ([1]; solvent MtBE, MeOAc, EtOH): FB-C
- Dry (XRPD) [2]: Am.

Compound: O.O.O=c1c(O)c(-c2ccc(O)c(O)c2)oc2cc(O)cc(O)c12 [Quercetin Dihydrate]
- Wet (XRPD) ([1]; solvent MtBE, MeOAc, EtOH): FB-C + quercetin
- Dry (XRPD) [2]: Am.

Compound: O=C1NS(=O)(=O)c2ccccc21 [Saccharin]
- Wet (XRPD) ([1]; solvent EtOH): Am. + 1 peak
- Wet (XRPD) ([1]; solvent MeOAc): Am. + trace FB-C
- Wet (XRPD) ([1]; solvent MtBE): FB-C + saccharin
- Dry (XRPD) [2]: Am.

Compound: CO[C@]1(C(=O)N[C@@H](C)c2ccc(-n3cc(F)cn3)nc2)CC[C@H](c2nc(C)cc(Nc3cc(C)[nH]n3)n2)CC1 [Solid Form 14-A, pralsetinib]
- solubility ([3]; fasted state simulated gastric fluid, fassgf or other biorelevant, read-out: Solubility in fasted state simulated gastric fluid): 1760 µg/mL (≈ 3300 µM)
- residual solid after solubility test ([3]; fasted state simulated gastric fluid, listed as solid form 14-A): amorphous
- residual solid after solubility test ([3]; fasted state simulated intestinal fluid): pralsetinib freebase solid form A
- residual solid after solubility test ([3]; fed state simulated intestinal fluid): amorphous
- solubility ([3]; fed state simulated intestinal fluid, fessif, read-out: Solubility in fed state simulated intestinal fluid): 490 µg/mL (≈ 918 µM)
- Solubility in fasted state simulated intestinal fluid ([3]; listed as solid form 14-A): 0.20 mg/mL (≈ 375 µM)
- Solubility in water ([3]; listed as solid form 14-A): 1.70 mg/mL (≈ 3190 µM)
- solubility in water ([3]; listed as solid form 14-A): high solubility
- residual solid after solubility test ([3]; water): XRPD Pattern 14-A
- hysteresis in the DVS plot [4]: minimal hysteresis
- mass change by DVS ([4]; between 2% and 90% relative humidity, listed as solid form 14-A): 0.94 wt. %
- mass change by DVS ([4]; between 15% and 75% relative humidity, listed as solid form 14-A): 0.86 wt. %
- DVS Mass Change ([4]; listed as Phosphate 14-A): 0.94 wt. %
- reversibility of the DVS mass change ([4]; listed as solid form 14-A): appears to be reversible
- Stability 40° C./75% RH ([5]; XRPD pattern after exposure, listed as Phosphate 14-A): Stable
- stability on exposure to 75% relative humidity at 40° C. ([5]; listed as solid form 14-A): stable
- Stability 7-day slurry [6]: Stable
- stability slurrying 7 days in EtOAc ([6]; listed as solid form 14-A): stable
- stability slurrying 7 days in EtOH ([6]; listed as solid form 14-A): stable
- stability slurrying 7 days in EtOH:water (95:5 vol) ([6]; listed as solid form 14-A): stable
- reduction (HPLC purity) after 7 days slurry ([6]; materials isolated from EtOAc): 0.07%
- stability of salt solid form to humidification ([7]; listed as Pattern 14-A): stable
- stability of salt solid form to humidification ([7]; listed as phosphate 14-A): stable
- stability of salt solid form to humidification ([7]; listed as solid form 14-A): stable
- stability of salt solid form to drying ([7]; listed as Pattern 14-A): stable
- stability of salt solid form to drying ([7]; listed as phosphate 14-A): stable
- stability of salt solid form to drying ([7]; listed as solid form 14-A): stable

Compound: CO[C@]1(C(=O)N[C@@H](C)c2ccc(-n3cc(F)cn3)nc2)CC[C@H](c2nc(C)cc(Nc3cc(C)[nH]n3)n2)CC1 [Solid Form 15-A, pralsetinib]
- solubility in simulated gastric fluid [3]: high solubility
- residual solid after solubility test ([3]; fasted state simulated gastric fluid, listed as solid form 15-A): solid form 15-D
- Solubility in fasted state simulated gastric fluid ([3]; listed as solid form 15-A): 1.12 mg/mL (≈ 2100 µM)
- Solubility in fasted state simulated intestinal fluid ([3]; listed as solid form 15-A): 0.02 mg/mL (≈ 37.5 µM)
- Solubility in fed state simulated intestinal fluid ([3]; listed as solid form 15-A): 0.84 mg/mL (≈ 1570 µM)
- Solubility in water ([3]; listed as solid form 15-A): 0.45 mg/mL (≈ 843 µM)
- mass change by DVS ([4]; between 2% and 90% relative humidity, listed as solid form 15-A): 3.4 wt. %
- mass change by DVS ([4]; between 15% and 75% relative humidity, listed as solid form 15-A): 1.9 wt. %
- DVS Mass Change ([4]; listed as Succinate 15-A): 3.40 wt. %
- reversibility of the DVS mass change ([4]; listed as solid form 15-A): appears to be reversible
- stability on exposure to 75% relative humidity at 40° C. ([5]; listed as Solid form 15-A): converted to Pattern 15-A+B
- stability slurrying 7 days in EtOAc ([6]; listed as Solid form 15-A): stable
- stability slurrying 7 days in EtOH ([6]; listed as Solid form 15-A): stable
- reduction in purity after 7 days slurry ([6]; EtOH:water (95:5 vol) slurry): 0.13%
- stability slurrying 7 days in EtOH:water (95:5 vol) ([6]; listed as Solid form 15-A): converted to Pattern 15-C
- stability of salt solid form to humidification ([7]; listed as Pattern 15-A): stable
- stability of salt solid form to humidification ([7]; listed as succinate 15-A): stable
- stability of salt solid form to drying ([7]; listed as succinate 15-A): stable

Compound: CO[C@]1(C(=O)N[C@@H](C)c2ccc(-n3cc(F)cn3)nc2)CC[C@H](c2nc(C)cc(Nc3cc(C)[nH]n3)n2)CC1 [Solid Form D, pralsetinib]
- behaviour sitting in atmosphere [8]: converted to other solid forms
- behaviour upon drying [8]: converted to solid form B

Compound: CO[C@]1(C(=O)N[C@@H](C)c2ccc(-n3cc(F)cn3)nc2)CC[C@H](c2nc(C)cc(Nc3cc(C)[nH]n3)n2)CC1 [Solid Form I, pralsetinib]
- behaviour upon drying ([8]; listed as Pattern I): lost crystallinity

Compound: CO[C@]1(C(=O)N[C@@H](C)c2ccc(-n3cc(F)cn3)nc2)CC[C@H](c2nc(C)cc(Nc3cc(C)[nH]n3)n2)CC1 [Solid Form J, pralsetinib]
- behaviour upon drying [8]: unstable and quickly converted to amorphous
- behaviour upon drying ([8]; listed as Pattern J): either lost crystallinity or became amorphous

Compound: CO[C@]1(C(=O)N[C@@H](C)c2ccc(-n3cc(F)cn3)nc2)CC[C@H](c2nc(C)cc(Nc3cc(C)[nH]n3)n2)CC1 [Solid Form K, pralsetinib]
- behaviour upon drying [8]: unstable on drying and converted to material characterized by XRPD Pattern M

Compound: CO[C@]1(C(=O)N[C@@H](C)c2ccc(-n3cc(F)cn3)nc2)CC[C@H](c2nc(C)cc(Nc3cc(C)[nH]n3)n2)CC1 [Solid Form L, pralsetinib]
- behaviour upon drying ([8]; listed as Pattern L): stable

Compound: CO[C@]1(C(=O)N[C@@H](C)c2ccc(-n3cc(F)cn3)nc2)CC[C@H](c2nc(C)cc(Nc3cc(C)[nH]n3)n2)CC1 [Solid Form P, pralsetinib]
- behaviour upon drying [8]: unstable upon drying and converted to a mixture of material characterized by XRPD Pattern P and XRPD Pattern L and extra peaks

Compound: CO[C@]1(C(=O)N[C@@H](C)c2ccc(-n3cc(F)cn3)nc2)CC[C@H](c2nc(C)cc(Nc3cc(C)[nH]n3)n2)CC1 [Solid Form Q, pralsetinib]
- behaviour upon drying [8]: lost crystallinity

Compound: COc1cc(C(=O)O)ccc1O [Vanillic Acid]
- Wet (XRPD) ([1]; solvent EtOH): FB-C
- Wet (XRPD) ([1]; solvent MtBE, MeOAc): FB-C + vanillic acid
- Dry (XRPD) [2]: Am.

Compound: Urea
- Wet (XRPD) ([1]; solvent EtOH): 16-B + FB-C
- Humidity (XRPD) ([1]; solvent EtOH, 97% R.H. for 24 hours): 16-B + FB-C
- Wet (XRPD) ([1]; solvent MtBE, MeOAc): FB-C + urea
- Dry (XRPD) [2]: FB-A +

— US12448366B2, “Solid forms of pralsetinib” (Rigel Pharmaceuticals, Inc., priority 2020, dated 2025)
